Test systems include 786-0; DMS-273; HCT-15; HOP-18; IGROV-1; LXFL 529; M19-MEL; OVCAR-5; OVCAR-8; RXF 393; SN12C; SNB-19; SNB-78; UACC-257.
Holding throughout (test): DTP human tumour cell line panel, 48 h

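Each compound was tested at five concentrations against cells in 96-well plates for 48 hours. GI50 marks 50% less growth.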 Active and inactive are the calls of the source. No stated cut-off is given here; in the data, active = GI50 up to about 1.1 µM and inactive = higher. Some results are limits rather than exact numbers.

Results on 15 compounds are retold here after ChEMBL document CHEMBL1201862, “PubChem BioAssay data set” (2004).

With `COc1cc(OC)c2ssc3c(OC)cc(OC)c4ssc1c2-c43`, the GI50 in the assay with 786-0 is > 100 µM (inactive); with DMS-273, > 100 µM (inactive); in the assay with HCT-15, greater than 100 µM; in the assay on HOP-18, > 100 µM (inactive); in the assay with IGROV-1 it was > 100 µM (inactive); in the assay on LXFL 529 it was > 100 µM (inactive). Besides, the GI50 in the assay with M19-MEL, with OVCAR-5, in the assay on OVCAR-8, in the assay on RXF 393, in the assay with SN12C and with SNB-19 was > 100 µM (inactive) throughout. In addition, the GI50 in the assay with SNB-78 and in the assay with UACC-257 was > 100 µM (inactive) each time.
Regarding `CS/C(=N\c1ccc([N+](=O)[O-])cc1C#N)NC(=O)c1ccccc1`, the GI50 with 786-0 was > 100 µM (inactive); in the assay on HCT-15 it was greater than 100 µM; in the assay on HOP-18 it was 75.7 µM (inactive); in the assay with IGROV-1 it was > 100 µM (inactive); with LXFL 529 it was > 100 µM (inactive); in the assay with M19-MEL it was > 100 µM (inactive). For the same compound, the GI50 in the assay on OVCAR-5 is > 100 µM (inactive); in the assay on OVCAR-8, > 100 µM (inactive); with RXF 393, 40.4 µM (inactive); with SN12C, > 100 µM (inactive); in the assay with SNB-19, > 100 µM (inactive); with SNB-78, > 100 µM (inactive). The GI50 with UACC-257 was > 100 µM (inactive).
With `O=C1OC(c2ccccc2)=N/C1=C/NC(Cc1ccc(O)cc1)C(=O)O` (stereo not drawn), the GI50 is > 100 µM (inactive) in the assay on 786-0; > 100 µM (inactive) in the assay on DMS-273; greater than 100 µM in the assay on HCT-15; 36.1 µM (inactive) with HOP-18; > 100 µM (inactive) in the assay on LXFL 529; > 100 µM (inactive) in the assay with OVCAR-5. Also, the GI50 was > 100 µM (inactive) in the assay on OVCAR-8; > 100 µM (inactive) in the assay with RXF 393; > 100 µM (inactive) in the assay with SNB-19; > 100 µM (inactive) in the assay on SNB-78; 73.5 µM (inactive) in the assay with UACC-257.
Consider `Cc1nn(C(=O)CC(=O)Nc2ccccc2Cl)c(C)c1/N=N/c1ccccc1Cl`, for which the GI50 in the assay on 786-0 was > 100 µM (inactive); in the assay on DMS-273, > 100 µM (inactive); in the assay on HCT-15, greater than 100 µM; with HOP-18, > 100 µM (inactive); in the assay with IGROV-1, > 100 µM (inactive); with LXFL 529, > 100 µM (inactive). In addition, the GI50 with M19-MEL, in the assay with OVCAR-5, in the assay on OVCAR-8, with RXF 393, with SN12C and with SNB-19 was > 100 µM (inactive) in each case. Also, the GI50 in the assay on SNB-78 was 40.9 µM (inactive); with UACC-257, > 100 µM (inactive).
Regarding `NNc1cnn(-c2ccccc2)c(=O)c1Cl`, the GI50 in the assay with 786-0 was > 100 µM (inactive); in the assay with DMS-273 it was > 100 µM (inactive); with HCT-15, greater than 100 µM; with HOP-18 it was > 100 µM (inactive); in the assay with IGROV-1, > 100 µM (inactive); in the assay on LXFL 529, > 100 µM (inactive). In addition, the GI50 in the assay on M19-MEL, with OVCAR-5, with OVCAR-8, with RXF 393, with SN12C and in the assay on SNB-78 was > 100 µM (inactive) in each case. Besides, the GI50 with UACC-257 is > 100 µM (inactive).
As for `O=C(Nc1ccc(Cl)cc1Cl)C1C(=O)N(c2ccc(Cl)cc2Cl)C(=O)/C1=N\Nc1ccc([N+](=O)[O-])cc1[N+](=O)[O-]` (stereo not drawn), the GI50 in the assay on 786-0 is 67.8 µM (inactive); in the assay on DMS-273, 46.6 µM (inactive); with HCT-15, 9.82 µM; with HOP-18, 17.9 µM (inactive); with IGROV-1, 83 µM (inactive); in the assay with LXFL 529, 13.9 µM (inactive). The GI50 is 59.3 µM (inactive) with M19-MEL; 44.5 µM (inactive) in the assay on OVCAR-5; 60.8 µM (inactive) in the assay on OVCAR-8; 74.6 µM (inactive) in the assay on SN12C; 39.1 µM (inactive) in the assay on SNB-19; > 100 µM (inactive) with SNB-78. Also, the GI50 in the assay on UACC-257 was 29.4 µM (inactive).
Take `O=C(Nc1ccc(Cl)cc1Cl)C1C(=O)C(=O)N(c2ccc(Cl)cc2Cl)C1=O` (stereo not drawn): the GI50 is > 100 µM (inactive) in the assay on 786-0; greater than 100 µM in the assay with HCT-15; > 100 µM (inactive) in the assay with HOP-18; > 100 µM (inactive) in the assay with IGROV-1; > 100 µM (inactive) in the assay on LXFL 529; > 100 µM (inactive) with M19-MEL. Moreover, the GI50 with OVCAR-5 was > 100 µM (inactive); in the assay with OVCAR-8, > 100 µM (inactive); in the assay with RXF 393, 37.8 µM (inactive); with SN12C, > 100 µM (inactive); in the assay on SNB-19, > 100 µM (inactive); in the assay with SNB-78, > 100 µM (inactive). The GI50 in the assay with UACC-257 is > 100 µM (inactive).
For the compound `CSc1ccc(/C=C2\CN(C)C/C(=C\c3ccc(SC)cc3)C2=O)cc1`, the GI50 in the assay on 786-0 is 54.1 µM (inactive); with DMS-273, 14.1 µM (inactive); in the assay on HCT-15, 32 µM; with HOP-18 it was > 100 µM (inactive); in the assay on IGROV-1, 32.6 µM (inactive); with LXFL 529, 5.22 µM (inactive). For the same compound, the GI50 in the assay with M19-MEL was 35.1 µM (inactive); with OVCAR-5 it was > 100 µM (inactive); in the assay with OVCAR-8, 13.5 µM (inactive); in the assay on RXF 393 it was 22 µM (inactive); with SN12C, 23.3 µM (inactive); in the assay with SNB-78 it was 19.8 µM (inactive). The GI50 in the assay on UACC-257 was 31.7 µM (inactive).
In the case of `C1=C(c2ccccc2)C(OC2Oc3ccccc3C=C2c2ccccc2)Oc2ccccc21` (stereo not drawn), the GI50 in the assay on 786-0 is > 100 µM (inactive); in the assay with DMS-273, > 100 µM (inactive); in the assay on HCT-15, greater than 100 µM; with HOP-18, > 100 µM (inactive); with IGROV-1, > 100 µM (inactive); with LXFL 529, > 100 µM (inactive). The GI50 with M19-MEL, with OVCAR-5, in the assay with OVCAR-8, in the assay with RXF 393, with SN12C and in the assay on SNB-19 was > 100 µM (inactive) in each case. The GI50 in the assay on SNB-78 and with UACC-257 was > 100 µM (inactive) each time.
Regarding `Cc1ccc(NC(=O)CCc2nnc(S)[nH]2)cc1`, the GI50 is > 100 µM (inactive) in the assay on 786-0; > 100 µM (inactive) in the assay with DMS-273; 76 µM in the assay on HCT-15; > 100 µM (inactive) with HOP-18; > 100 µM (inactive) in the assay on IGROV-1; > 100 µM (inactive) with LXFL 529. In addition, the GI50 with M19-MEL, in the assay with OVCAR-5, with OVCAR-8, in the assay on SN12C, in the assay with SNB-19 and in the assay on SNB-78 was > 100 µM (inactive) in each case. Besides, in the assay on UACC-257, the GI50 was > 100 µM (inactive).
Turning to `Nc1cn(C2OC(CC(c3ccccc3)(c3ccccc3)c3ccccc3)C(O)C2O)c(=O)[nH]c1=O` (stereo not drawn), the GI50 in the assay with 786-0 was 21.4 µM (inactive); with DMS-273 it was 33.3 µM (inactive); in the assay on HCT-15, 17.8 µM; in the assay with HOP-18, 31.9 µM (inactive); in the assay on IGROV-1, 23.9 µM (inactive); in the assay on LXFL 529, 31.8 µM (inactive). Also, the GI50 is 18.4 µM (inactive) with M19-MEL; 21.2 µM (inactive) with OVCAR-5; 24.9 µM (inactive) in the assay with OVCAR-8; 6.64 µM (inactive) with RXF 393; 22.1 µM (inactive) in the assay with SN12C; 26.8 µM (inactive) in the assay on SNB-19. The GI50 with SNB-78 is 67.9 µM (inactive); with UACC-257, 22.9 µM (inactive).
Turning to `Cc1cc(O)c(C=O)c(C)c1CCC1(C)C=Cc2cc(O)ccc2O1` (stereo not drawn), the GI50 in the assay with 786-0 is 29.3 µM (inactive); with DMS-273, 21.5 µM (inactive); with HCT-15, 22.9 µM; with HOP-18, 18.3 µM (inactive); with IGROV-1, 26.2 µM (inactive); in the assay with LXFL 529 it was 15.7 µM (inactive). Further, the GI50 with M19-MEL was 27.7 µM (inactive); in the assay on OVCAR-5, 30.5 µM (inactive); in the assay on OVCAR-8, 17.1 µM (inactive); with SN12C, 29.3 µM (inactive); in the assay on SNB-19, 38.9 µM (inactive); with SNB-78 it was 21.2 µM (inactive). Also, the GI50 in the assay with UACC-257 is 18.7 µM (inactive).
Regarding `O=C(O)C(Cc1ccccc1)N1C(=O)N/C(=C\c2ccc(F)cc2)C1=O` (stereo not drawn), the GI50 in the assay with 786-0 was > 100 µM (inactive); in the assay with DMS-273, > 100 µM (inactive); in the assay on HCT-15, greater than 100 µM; in the assay on HOP-18, > 100 µM (inactive); with IGROV-1, > 100 µM (inactive); in the assay with LXFL 529, > 100 µM (inactive). Moreover, the GI50 is > 100 µM (inactive) with M19-MEL; > 100 µM (inactive) with OVCAR-5; > 100 µM (inactive) in the assay with OVCAR-8; > 100 µM (inactive) with RXF 393; > 100 µM (inactive) in the assay on SN12C; 18.4 µM (inactive) in the assay on SNB-78. For the same compound, in the assay with UACC-257, the GI50 is > 100 µM (inactive).
For the compound `O=S(=O)(O)c1ccc([Se][Se]c2ccc(S(=O)(=O)O)cc2)cc1`, the GI50 in the assay on 786-0 is > 100 µM (inactive); with DMS-273, 76.7 µM (inactive); in the assay on HCT-15, greater than 100 µM; with HOP-18, > 100 µM (inactive); in the assay with IGROV-1, > 100 µM (inactive); with LXFL 529 it was 51.2 µM (inactive). The GI50 in the assay with M19-MEL, in the assay with OVCAR-5, with OVCAR-8, in the assay with RXF 393, in the assay on SN12C and in the assay on SNB-19 was > 100 µM (inactive) each time. The GI50 with SNB-78 and with UACC-257 was > 100 µM (inactive) throughout.
On to `COC(=O)C1C2C=CC(C2)N1[C@@H](C)c1ccccc1` (stereo partly drawn), for which the GI50 is > 100 µM (inactive) in the assay with 786-0; > 100 µM (inactive) with DMS-273; greater than 100 µM in the assay on HCT-15; > 100 µM (inactive) in the assay on HOP-18; > 100 µM (inactive) in the assay on IGROV-1; > 100 µM (inactive) in the assay on LXFL 529. Moreover, the GI50 in the assay on M19-MEL, with OVCAR-5, in the assay with OVCAR-8, in the assay with SN12C, with SNB-19 and with SNB-78 was > 100 µM (inactive) throughout. In addition, the GI50 in the assay on UACC-257 was > 100 µM (inactive).
